Data from patent US12390437B2, “Itaconic acid derivatives and uses thereof intreating an inflammatory disease or a disease associated with an undesirable immune response” (Sitryx Therapeutics Limited, priority 2019, dated 2025).
Counter-ions that a name gives are not always drawn.

Tested on: IL-6 cytokine output from isolated primary human monocytes
Experiment: Primary human monocyte AlphaLISA IL-6 cytokine assay
Assay type: cell-based
Conditions: CD14+ primary human monocytes, LPS 24 hr then Nigericin 1 hour
Experimental: Measuring Inhibitory Effects on IL-1β and IL-6 Cytokine Output from Isolated Primary Human Monocytes
The cytokine inhibition profiles of compounds of formula (IW-1) were determined in a CD14^+ isolated primary human monocyte cell assay. All assays were performed in RPMI-1640 growth medium (Gibco), supplemented with heat-inactivated fetal bovine serum (FBS) and 1% penicillin-streptomycin unless specified otherwise. The IL-1β and IL-6 cytokine inhibition assays were each run in a background of isolated primary human monocyte cells as described below. All reagents described were from Sigma-Aldrich unless specified otherwise. Compounds were prepared as 100 mM DMSO stocks.
Primary peripheral blood mononuclear cells (PBMCs) were isolated from human whole blood. Following PBMC isolation, a CD14^+ monocyte isolation step was conducted whereby CD14^+ magnetic beads (Miltenyi Biotec) were incubated for 15 minutes with the PBMC suspension that was previously treated with ice cold T-cell isolation buffer (PBS, 0.5% BSA, 2 mM EDTA). Following bead incubation, the treated cell suspension was passed through a magnetic separation column designed to positively select for magnetically labelled cells. The isolated CD14^+ monocytes were subsequently plated at the appropriate cell density for the assay, prior to compound treatment on the day of plating. Working concentrations of compounds were prepared separately in RPMI-1640 only growth medium and pre-incubated with the cells for 30 minutes (37° C./5% CO2). Following the 30 minute compound pre-incubation, primary monocytes were treated with an appropriate concentration of LPS and subsequently incubated for a 24 hr period (37° C./5% CO2). An appropriate final concentration of Nigericin was then dispensed into the primary monocyte plates and incubated for 1 hour (37° C./5% CO2) before monocyte supernatants were harvested and collected in separate polypropylene 96-well holding plates prior to commencing the AlphaLISA cytokine assay.
Reagents from each of the IL-1β and IL-6 commercial kits (Perkin Elmer) were prepared and run according to the manufacturer's instructions. Subsequently, fluorescence signal was measured in a microplate reader (EnVision® Multilabel Reader, Perkin Elmer).
Percentage inhibition was calculated per cytokine by normalising the sample data to the high and low controls used within each plate (+/−LPS respectively). Percentage inhibition was then plotted against compound concentration and the 50% inhibitory concentration (IC50) was determined from the resultant concentration-response curve.

| IC50 [µM] | SMILES |
| --- | --- |
| 13.2 | C=C(CC(=O)OCCCCCCCC)C(=O)OCCS(C)(=O)=O [Example 2, 1-(2-(methylsulfonyl)ethyl) 4-octyl 2-methylenesuccinate] |
| 10.7 | C=C(CC(=O)OCCCCCCCC)C(=O)OCCN1C(=O)CCC1=O [Example 9, 1-(2-(2,5-dioxopyrrolidin-1-yl)ethyl) 4-octyl 2-methylenesuccinate] |
| 15.7 | COC(=O)/C=C/C(=O)OC [dimethyl fumarate, reference compound] |
| 26.9 | C=C(CC(=O)OCCCCCCCC)C(=O)OCCC#N [Example 1, 1-(2-cyanoethyl) 4-octyl 2-methylenesuccinate] |
